Several values for one entry are separate records, joined by “and”; a condition that tells them apart may be missing. Equal entries are not always repeated.

Data set [1] concerns B16F10 melanoma subcutaneous tumour. The experiment in a line: B16F10 melanoma model of tumour growth. It is filed as in vivo, C57BL/6 mice. The note with it: Day 14. The method, then: The B16F10 melanoma model in C57BL/6 mice was used for this study. B16F10 cells (1×10^6 cells, screened for mycoplasma) were injected subcuteanously on Day 0 on the right flank of each mouse. The mice were divided into 9 groups and received the treatments outlined below. Plant extracts A and B (see Example VI) were used in this study.
Oral administration of plant extracts was initiated 7 days prior to injection of the B16F10 cells (i.e. on day-7) and continued for […] with or without sub-optimal doses of doxorubicin (see below).
Group 1: The vehicle used for administration of the plant extracts was used as a negative control for the experiment. Group 2: Doxorubicin (2.5 mg/kg), a standard positive control in the B16F10 melanoma model at optimal dosage, was injected intraperitoneally on days 5, 9 and 13. Group 3: Doxorubicin (1 mg/kg), a sub-optimal dose in this model, was injected intraperitoneally on days 5, 9 and 13. Group 4: Therapeutic plant extract A (PA1) was administered by gavage (200 mg/kg) from days-7 to 14. Group 5: Therapeutic plant extract B (PB1) was administered by gavage (200 mg/kg) from days-7 to 14. Group 6: Therapeutic combination 5 (TC5) was administered to this group. TC5 comprised plant extract A and doxorubicin (1 mg/kg). Plant extract A was administered by gavage (200 mg/kg) from days-7 to 14 and doxorubicin was injected intraperitoneally on days 5, 9 and 13. Group 7: Therapeutic combination 6 (TC6) was administered to this group. TC6 comprised plant extract B and doxorubicin (1 mg/kg). Plant extract B was administered by gavage (200 mg/kg) from days-7 to 14 and doxorubicin was injected intraperitoneally on days 5, 9 and 13. Group 8: Therapeutic combination 7 (TC7) was administered to this group. TC7 comprised plant extract A, plant extract B and doxorubicin (1 mg/kg). […]
The subcutaneous tumour was measured on each animal with an electronic calliper starting on day 5 and repeated on days 8, 11 and 14 and the volume of tumour was calculated according to formula: […]. […]

Data set [2] concerns LLC1 cells clone M27 lung tumour metastases. Nature of the data set: Lewis lung carcinoma (LLC) model of tumour metastasis. It is filed as in vivo, C57BL/6 mice. The following applies: for Mean (SD) tumours/animal / % reduction compared to control (lung tumour metastases) / Total tumour burden (per group): Day 14. The method, then:
The Lewis lung carcinoma model in C57BL/6 mice was used for this study. Lewis lung carcinoma is an aggressive, highly metastatic cell line. LLC1 cells clone M27 (3×10^5 cells, screened for mycoplasma) were injected on Day 0 into the tail vein of each mouse. The mice were divided into 7 groups and received the treatments outlined below. Oral administration of plant extracts was initiated 9 days prior to injection of LLC cells (i.e. on day-9) and continued for […] along with sub-optimal doses of cisplatin (see below). Group 1: […] Group 2: […] Group 3: […] Group 4: Therapeutic combination 1 (TC1) was administered to this group. […] Group 5: Therapeutic combination 2 (TC2) was administered to this group. […] Group 6: Therapeutic combination 3 (TC3) was administered to this group. […] Group 7: Therapeutic combination 4 (TC4) was administered to this group. […] At the end of the experiment (Day 14), the animals were humanely sacrificed, the lungs resected and fixed by direct immersion for approximately 24 hrs in Bouin's fixing media. Metastatic colonies on each lung surface of each mouse were counted by direct observation under a dissecting microscope in a blinded manner by three different investigators.

Regarding `COc1cccc2c1C(=O)c1c(O)c3c(c(O)c1C2=O)C[C@@](O)(C(=O)CO)C[C@@H]3O[C@H]1C[C@H](N)[C@H](O)[C@H](C)O1` [Doxorubicin], the “Volume (mm^3) of tumour” value in data set [1] (doxorubicin 1 mg/kg i.p. days 5, 9, 13) was 2682 ± 220 mm^3. In data set [1] (doxorubicin 1 mg/kg i.p.), the “% growth of tumour” value is on record as 247 ± 30% and the “Diameter (mm) of tumour” value was 21.4 ± 1.1 mm.

For `N.N.[Cl][Pt][Cl]` [Cisplatin], the “Mean (SD) tumours/animal” value in data set [2] (cisplatin 2 mg/kg i.p. days 1, 4, 7, 10, 13) turned out to be 24.70; in data set [2] (cisplatin 5 mg/kg i.p. days 1, 4, 7, 10, 13) it was 1.46. In addition, the “% reduction compared to control (lung tumour metastases)” value in data set [2] (cisplatin 2 mg/kg i.p.) was 27% and 26.7%; in data set [2] (cisplatin 5 mg/kg i.p.), 96% and 95.6%. Further, the “Total tumour burden (per group)” value was determined as 346 in data set [2] (cisplatin 2 mg/kg i.p.) and 21 in data set [2] (cisplatin 5 mg/kg i.p.). Also, the “body weight of animals” value in data set [2] (cisplatin 5 mg/kg dose) was “sharp decrease”.

The values above are taken from patent US20090004302A1, “Methods and Therapeutic Compositions Comprising Plant Extracts for the Treatment of Cancer” (priority 2004, published 2009).
